# Assay results published in patent US7482008B1, “Human T cell reactive feline protein (TRFP) isolated from house dust and uses therefor” (Merck Patent GmbH, priority 1989, dated 2009).
# Tested on: Balb/c mice
# Experiment: Oral rChain 1, single vs multiple doses, protocol 3
# Type: in vivo, mouse
# Procedure: Five groups of five age-matched Balb/c mice were fed on days −7, −5 and −2 with 250 μg rChain 1 (Groups 1 and 4), 750 μg rChain 1 (Group 2), or with PBS (Groups 3 and 5). On day 0, the mice in Groups 1-3 were challenged with a s.c. injection of 100 μg rChain 1 in CFA, while the mice in Groups 4 and 5 were not challenged. On day 12 the draining and mesenteric lymph nodes and spleens were removed for proliferation, IL-2, IL-4 and TGF-beta assays.
# The draining lymph nodes (i.e., inguinal, paraaortic and popliteal), the mesenteric lymph nodes, and the spleen were surgically removed from the animals 10-12 days after antigen challenge. Cells from these tissues were suspended by being forced through a stainless steel mesh with a glass pestle. The cells were washed twice in RPMI 1640 medium with a 1% fetal calf serum (FCS) before culture. All cells were cultured at 37° C. in 5% CO2 in RPMI 1640 with 10% FCS (no. F4884, Sigma), 100 units of penicillin G per ml, 10 μg of streptomycin per ml, 10 mM glutamine, and 0.05 mM 2-mercaptoethanol. […]. Cells were cultured in triplicate, 0.2 ml per well at 4×10^6 cells per ml, in 96-well plates. Supernatants were removed from the wells after 24 hours to test for the production of IL-2 or IL-3 and were frozen to kill any transferred cells or removed after 48 hours for testing IL-4 production. Separate triplicate wells were incubated for 96 hours for the proliferation assay. The supernatants were kept at […] for several days to kill transferred cells.
# Lymph node of spleen cells were plated in a flat bottom 96-well plate (4×10^5/well) in 100 μl medium. Peptide or recombinant protein or control solution (100 μl) is added to each well and the cells allowed to incubate for 1 day at 37° C. On day 2, the cultures were pulsed with [^3H] thymidine (1 μCi per well in 50 μl of medium; 1 Ci=37 GBq) for 4 to 6 hours, and on day 3, the plates were harvested with a 96-well harvester (Tomtec, Orange, Conn.) and counted on a Betaplate scintillation counter (Pharmacia, Upsaala Sweden).
# To measure IL-2, supernatants were tested after thawing for the ability to support the growth of an IL-2-dependent line such as CTLL-2 (University of California, Berkeley). The cell line was maintained by passage in 10% supernatant of Con A-stimulated (5 μg/ml) rat spleen cells. This cell line is dependent almost exclusively on IL-2 for growth and survival, proliferating only weakly to high doses of recombinant IL-4. […] After a 24 hour incubation, the cells were pulsed with [^3H] thymidine (1 μCi per well in 50 μl of medium; 1 Ci=37 GBq) for 4 to 6 hours and the plates were harvested with a 96-well harvester (Tomtec, Orange, Conn.) and counted on a Betaplate scintillation counter (Pharmacia, Upsaala Sweden). […]
substance,measurement,setting,value
recombinant chain 1: recombinant TRFP chain 1 expressed in E. coli,production of IL-2 by mesenteric lymph node cells,"cultured with rChain 1, Peptide X, and Peptide Y",detectable tolerizing effect
same,spleen cell response to peptide X,"mouse, in vivo",not changed
same,spleen cell response to rChain 1 and peptide Y,"mouse, in vivo",moderately decreased
same,"draining node response, single oral 750 μg vs several doses of 250 μg","mouse, in vivo, po",more effective
